“Also recorded” adds a separate entry of the source.
What was measured:
MDA-MB468 cells = experiment: MTT assay, breast cancer cell line; assay type: cell-based, human; details: 1x10^-8 to 1x10^-5 M, FIG. 8
Description: (§1) Representative compounds of the invention were screened for anti-cancer activity by the procedures and methods described below. The following human cancer cell lines were used to detect anti-cancer activity. • The breast cancer cell line MDA-MB468 served to detect anti-breast cancer activity. • The prostate cancer cell line PC-3 was used to detect anti-prostate cancer activity • The non-small-cell lung cancer cell line A549 was used to detect anti-lung cancer activity • The pancreatic cancer cell line BX-PC-3 was used to detect anti-pancreatic cancer activity. • Cell lines were purchased from American Type Culture Collection (ATCC). Cell Culture conditions:
(§2) The cancer cell cultures were grown as recommended by the ATTC manuals. A549 cells and BX-PC-3 cells were grown in DME Dulbecco's modified Eagle's medium containing 4500 mg/L glucose; 4 mM L-glutamine; 10 U/ml Pen-G; 10 mcg/ml […] and 10% fetal calf serum (FCS). PC-3 and MDA-MB468 cells were grown in RPMI medium 1640 containing 2 mM L-glutamine; 10 U/ml Pen-G; 10 mcg/ml Streptomycin and 10% FCS. Cells were kept at 6% CO2 and 37° C. Cells were seeded on day zero in 96-well format tissue culture plates at suitable densities the day before starting treatment, in the media indicated above.
(§3) On day one, the compounds of the invention were added to the culture media of growing cells, containing 10% […]. The cell media contained the compounds of the invention at one of six concentrations: 1×10^−8, 5×10^−8, 1×10^−7, 5×10^−7, 1×10^−6, and 1×10^−5M. In control experiments, 0.1% DMSO was used as vehicle control, and never exceeded 0.1% final concentration. On day four the media was removed from the cells and replaced with fresh media containing the compounds of the invention and FCS at the appropriate concentrations.
(§4) On day five 10 μl of 5 mg/ml MTT dye was added to each well containing a cell culture. […] On day 6 the formazan crystals formed were solubilized and the resulting colored solution quantified using a scanning multiwell spectrophotometer at a wavelength of 595 nm. […]

A549 cells = experiment: MTT assay, non-small-cell lung cancer cell line; assay type: cell-based, human; details: 1x10^-8 to 1x10^-5 M, FIG. 7
Description: as §1, §2, §3
On day five 10 μl of 5 mg/ml MTT dye was added to each well containing a cell culture. The MTT assay is based on the dehydrogenase activity in active mitochondria for cleavage of the yellow tetrazolium salt MTT to produce purple formazan crystals. This conversion of MTT only occurs in living cells with intact/functional mitochondria. After addition of MTT, the cells were incubated for additional 4 hours at 6% CO2 and 37° C. Reaction was then stopped by adding 100 μl/well of a solubilization solution consisting of 10% Sodium Dodecyl Sulfate (SDS) and 10 mM HCl. On day 6 the formazan crystals formed were solubilized and the resulting colored solution quantified using a scanning multiwell spectrophotometer at a wavelength of 595 nm.
The procedure of Example 21 was employed to measure the anti-cancer activity of compounds 1 & 2 of the invention and compare them with equivalent activity tests for Comparative Compound 4, whose synthesis is given in Example 4. […]

BX-PC-3 cells = experiment: MTT assay, pancreatic cancer cell line; assay type: cell-based, human; details: BX-PC-3 pancreatic cancer cells; 1x10^-8 to 1x10^-5 M; FIG. 10
Description: as §1, §2, §3, §4

PC-3 cells = experiment: MTT assay, prostate cancer cell line; assay type: cell-based, human; details: PC-3 prostate cancer cells; 1x10^-8 to 1x10^-5 M; FIG. 9
Description: as §1, §2, §3, §4

[1] = test system: phosphorylated JNK proteins; experiment: Western Blot assay for JNK protein phosphorylation in H292 lung cancer cells; assay type: cell-based, human; details: 2.5 micromolar, 16 hours, FIG. 15
Experimental: Phosphorylated JNK proteins can be specifically detected by employing an antibody specific to phosphorylated JNK, followed by Western Blotting analysis. […] In particular, the human lung cancer cell line H292, purchased from the American Type Culture Collection (ATCC) (Manassas, Va.), was tested for JNK-activation induced by compounds 1, 2, 11, and 12 described herein.
H292 cells were grown in RPMI medium 1640 containing 2 mM L-glutamine; 10 U/ml Pen-G; 10 mcg/ml Streptomycin and 10% FCS.
Cells were kept at 6% CO2 and 37° C. H292 cells were plated at 70% confluence (adherent growing cells covering 70% of culture plate surface area) in a 10 centimeter tissue culture dish in the medium indicated above.
Compounds 1, 2, 11, and 12 were applied to cultures of the H292 cells in the medium indicated above at a concentration of 2.5 micromolar. DMSO (dimethyl sulfoxide, Sigma, St. Louis, Mo.) was used as vehicle control, and never exceeded 0.1% final concentration. Treatment was for 16 hours.
At the end of incubation of the cultured cells with the test compounds, the medium was removed and the plated cells were washed twice with cold PBS (phosphate buffer saline). Excess PBS was aspirated away and the cells were lysed and scraped into sample buffer containing 50 mM HEPES pH 7.5 (buffer), 150 mM NaCl, 0.1% Tween 20 (a detergent, Biorad, Hercules, Calif.), 20 mM NaF, 10 mcg/mL aprotinin, 10 mcg/mL leupeptin. Samples were incubated on ice for 15 minutes and insoluble material was pelleted by microfugation. Protein concentrations for each sample were determined using BSA (Bovine serum albumin, Sigma, St Louis, Mo.) as a standard in a colorimetric protein quantification assay (BioRad, Hercules, Calif.).
100 mcg of each sample of cellular lysate were subjected to electrophoresis on 12% SDS-PAGE (polyacrylamide gel electrophoresis) gels (BioRad, Hercules, Calif.). Proteins were transferred to PVDF membrane. Membranes were probed with a monoclonal antibody recognizing phosphorylated JNK (Cell Signaling, Beverly, Mass.) followed by HRP(horseradish peroxidase)-conjugated goat-anti-mouse antibody (Santa Cruz Biotechnology, Santa Cruz, Calif.). Immunoreative bands were visualized by ECL (enhanced chemiluminescence, Amersham, Buckinghanshire, England) detection on film (Kodak, Rochester, N.Y.).

Row | Compound | anti-cancer activity (MTT) (MDA-MB468 cells) | anti-cancer activity (MTT) (A549 cells) | anti-cancer activity (MTT) (BX-PC-3 cells) | anti-cancer activity (MTT) (PC-3 cells) | phosphorylation of JNK proteins (phospho-JNK bands) [1] | melting point
1 | Cc1nc2cc(-c3ccc(/C=C4\SC(=O)NC4=O)cn3)cc(C34CC5CC(CC(C5)C3)C4)c2o1 [Compound 1, 5-[6-(7-Adamantan-1-yl-2-methyl-benzoxazol-5-yl)-pyridin-3-ylmethylene]-thiazolidine-2,4-dione] | consistent and potent anti-cancer activity at low concentrations | consistent and potent anti-cancer activity at low concentrations | consistent and potent anti-cancer activity at low concentrations | consistent and potent anti-cancer activity at low concentrations | results in the production of phosphorylated JNK proteins; also recorded: induced the phosphorylation of JNK proteins; also recorded: potent activators of the phosphorylation of JNK proteins | –
2 | Cc1nc2cc(-c3ccc(/C=C4\SC(=O)NC4=O)cn3)cc(C3CCCCC3)c2o1 [Compound 11, 5-[6-(7-Cyclohexyl-2-methyl-benzoxazol-5-yl)-pyridin-3-ylmethylene]-thiazolidine-2,4-dione] | – | only relatively weak activity | – | – | only weakly induced the phosphorylation of JNK proteins | 314 to 316 °C
3 | Nc1nc2cc(-c3ccc(/C=C4\SC(=O)NC4=O)cn3)cc(C34CC5CC(CC(C5)C3)C4)c2o1 [Compound 14, 5-[6-(7-Adamantan-1-yl-2-amino-benzoxazol-5-yl)-pyridin-3-ylmethylene]-thiazolidine-2,4-dione] | consistent and potent anti-cancer activity at low concentrations | consistent and potent anti-cancer activity at low concentrations | consistent and potent anti-cancer activity at low concentrations | consistent and potent anti-cancer activity at low concentrations | – | –
4 | O=C1NC(=O)/C(=C/c2ccc(-c3cc(C45CC6CC(CC(C6)C4)C5)c4ocnc4c3)nc2)S1 [Compound 2, 5-[6-(7-Adamantan-1-yl-benzoxazol-5-yl)-pyridin-3-ylmethylene]-thiazolidine-2,4-dione] | consistent and potent anti-cancer activity at low concentrations | consistent and potent anti-cancer activity at low concentrations | consistent and potent anti-cancer activity at low concentrations | consistent and potent anti-cancer activity at low concentrations | results in the production of phosphorylated JNK proteins; also recorded: induced the phosphorylation of JNK proteins; also recorded: potent activators of the phosphorylation of JNK proteins | –
5 | O=C1NC(=O)/C(=C/c2ccc(-c3cc(C4CCCCC4)c4ocnc4c3)nc2)S1 [Compound 12, 5-[6-(7-Cyclohexyl-benzoxazol-5-yl)-pyridin-3-ylmethylene]-thiazolidine-2,4-dione] | – | – | – | – | results in the production of phosphorylated JNK proteins; also recorded: activates the phosphorylation of JNK proteins, though perhaps less potently than compound 1 or 2 | –

— US20050014767A1, “Benzoxazole, benzothiazole, and benzimidazole derivatives for the treatment of cancer and other diseases” (priority 2003, published 2005)
